One data set can be described thus: acute LD50. The note with it: mouse, in vivo, mice.
In data set [1] the test system is mice. Nature of the data set: spontaneous locomotor activity in the photocell chamber. The class given is in vivo. The note with it: for ED50: Mus musculus, read-out: Spontaneous Locomotor Activity: Depressant Dose 50% (dose reducing activity to 50 percent of control).
Data set [2] concerns mice. Nature of the data set: protection against maximal electroshock. The class given is in vivo. The note with it: Mus musculus, read-out: Anticonvulsant Protective Dose, 50% (Maximum Electroshock). (In general: The maximal electroshock test induces tonic seizures with an electrical stimulus.)
Data set [3] in a line: sedative / central nervous system depressant properties. The class given is in vivo. The note with it: in words.
Data set [4] is described as follows: motor coordination, rotorod method. It counts as in vivo. The note with it: mouse, mice; for TD50: read-out: Loss of Motor Coordination, ED50; for NOAEL: read-out: dose until which there is no significant impairment of motor coordination (rotorod). The procedure: There is no significant impairment of motor coordination as determined with the rotorod method (Kinnard, W. J. and Carr, C. J., J. Pharmacol. Exptl. Therap., 121: 354 (1957)), on the other hand, until doses of 900 mg/kg, p.o. or 500-900 mg/kg i.p. have been administered.
A general note: The rotarod test checks motor coordination on a turning rod.

Data set [5] concerns mice. Description: prolongation of loss of the righting reflex produced by barbital or hexobarbital. It counts as in vivo. The note with it: i.p., appropriate doses of barbital or hexobarbital.

“Also recorded” adds a separate entry of the source. Where two headings read alike, the source gives them in different places. Some results are limits rather than exact numbers.

In general, LD50 refers to the dose at which mortality reaches 50%. On to `O=C1CCC2(CCC(=O)c3ccccc32)C(=O)N1` (centres unmarked) [Example 1, 2,3-dihydrospiro-[naphthalene-1(4H),3'-piperidine]-2',4,6'-trione], for which the LD50 in “acute LD50” (ip, intraperitoneally) was greater than 2000 mg/kg; in “acute LD50” (po, orally), greater than 2000 mg/kg. For the same compound, the ED50 is 50 to 60 mg/kg in the data set with mice [1] (ip), 150 mg/kg in the data set with mice [1] (po), 160 to 170 mg/kg with mice [2] (ip) and 120 mg/kg in the data set on mice [2] (po). Also, the “Spontaneous Locomotor Activity: Depressant Dose 50% (dose reducing activity to 50 percent of control)” value in the data set on mice [1] (i.p.) was 50 to 60 mg/kg. The “central nervous system depressant properties” value in data set [3] is reported as “central nervous system depressant properties”. Besides, the TD50 is 500 to 900 mg/kg in data set [4] (ip, i.p.) and 900 mg/kg in data set [4] (oral). The NOAEL was 500 to 900 mg/kg in data set [4] (ip, i.p.) and no less than 900 mg/kg in data set [4] (po, p.o.). Moreover, the “dose that significantly prolongs loss of the righting reflex produced by barbital or hexobarbital” value with mice [5] is recorded as “about 300 mg/kg”.

For the compound `CCN1C(=O)CCC2(CCC(=O)c3ccccc32)C1=O` (centres unmarked) [Example 6, 1'-ethyl-2,3-dihydrospiro-[naphthalene-1(4H),3'-piperidine]-2',4,6'-trione], the sedative properties result in data set [3] is “has sedative properties”.

For `COc1ccc2c(c1)C(=O)CCC21CCC(=O)N(C)C1=O` (centres unmarked) [Example 8, 2,3-dihydro-6-methoxy-1'-methylspiro[naphthalene-1(4H),3'-piperidine]-2',4,6'-trione], the sedative properties result in data set [3] is “has sedative properties”.

For `Cc1ccc2c(c1)C(=O)CCC21CCC(=O)NC1=O` (centres unmarked) [Example 9, 2,3-dihydro-6-methylspiro[naphthalene-1(4H),3'-piperidine]-2',4,6'-trione], in data set [3], the sedative properties result is “has sedative properties”.

In the case of `Cc1ccc2c(c1)C(=O)CCC21CCC(=O)N(C)C1=O` (centres unmarked) [Example 10, 1',6-dimethyl-2,3-dihydrospiro-[naphthalene-1(4H),3'-piperidine]-2',4,6'-trione], the sedative properties result in data set [3] is “has sedative properties”.

For `COc1cc2c(cc1OC)C1(CCC(=O)NC1=O)CCC2=O` (centres unmarked) [Example 11, 2,3-dihydro-6,7-dimethoxyspiro-[naphthalene-1(4H),3'-piperidine]-2',4,6'-trione], the sedative properties result in data set [3] is listed as “has sedative properties”.

Regarding `COc1cc2c(cc1OC)C1(CCC2=O)CCC(=O)N(C)C1=O` (centres unmarked) [Example 12, 2,3-dihydro-6,7-dimethoxy-1'-methylspiro-[naphthalene-1(4H),3'-piperidine]-2',4,6'-trione], the sedative properties result in data set [3] was “has sedative properties”.

Turning to `O=C1CCC2(CC(=O)c3ccccc32)C(=O)N1` (centres unmarked) [Example 13, spiro-[indane-1,3'-piperidine]-2,3,6'-trione], the sedative properties result in data set [3] was “has sedative properties”.

Regarding `O=C1CC2(CCC(=O)c3ccccc32)C(=O)N1` (centres unmarked) [Example 14, 2,3-dihydrospiro[naphthalene-1(4H),3'-pyrrolidine]-2',4,5'-trione], the sedative properties entry in data set [3] is recorded as “has sedative properties”.

With `Cc1cccc2c1C1(CCC(=O)NC1=O)CCC2=O` (centres unmarked) [Example 15, 2,3-dihydro-8-methylspiro-[naphthalene-1(4H),3'-piperidine]-2',4,6' -trione], the sedative properties result in data set [3] was “has sedative properties”.

On to `Cc1cccc2c1C1(CCC2=O)CCC(=O)N(C)C1=O` (centres unmarked) [Example 16, 2,3-dihydro-1',8-dimethylspiro-[naphthalene-1(4H),3'-piperidine]-2',4,6'-trione], for which the sedative properties entry in data set [3] is “has sedative properties”.

With `O=C1CCC2(CCC(=O)c3cc(Cl)ccc32)C(=O)N1` (centres unmarked) [Example 17, 6-chloro-2,3-dihydrospiro[naphthalene-1(4H),3'-piperidine]-2',4,6'-trione], in data set [3], the sedative properties result is “has sedative properties”.

For `CN1C(=O)CCC2(CCC(=O)c3cc(Cl)ccc32)C1=O` (centres unmarked) [Example 18, 6-chloro-2,3-dihydro-1'-methylspiro[naphthalene-1(4H),3'-piperidine]-2',4,6'-trione], the ED50 in the data set with mice [1] (po) turned out to be 13 mg/kg. Besides, in the data set on mice [1] (in words, as shown in the table), the “activity compared with the known compound (Example 1)” value is “substantially greater activity”. In addition, the sedative properties entry in data set [3] is “has sedative properties; also recorded: particularly useful as a sedative”. Further, in data set [4] (oral), the TD50 is 285 mg/kg.

As for `O=C1CCC2(CCC(=O)c3cc([N+](=O)[O-])ccc32)C(=O)N1` (centres unmarked) [Example 19, 2,3-dihydro-6-nitrospiro-[naphthalene-1(4H),3'-piperidine]-2',4,6'-trione], the sedative properties entry in data set [3] was “has sedative properties”.

The values above are taken from patent publication US3985888A, “Methods of inducing sedation using certain spiroalkanone-imides” (Richardson-Merrell Inc., priority 1971, dated 1976).
